A short description of assay [1]: Selectivity ratio of IC50 for CHO-MG cells to IC50 for PTS in CHO cells. On the set-up: species or system Cricetulus griseus.
The species entered for assay [2] is Mus musculus. As to the kind of experiment: Increase in SGMS activity in mouse PancO2 cell lysates assessed as induction of NBD-sphingomyelin production at 0.5 uM using C12-NBD-ceramide substrate after 72 hrs by TLC relative to control.
The species entered for assay [3] is Mus musculus. As to the kind of experiment: Increase in SGMS activity in mouse PancO2 cell lysates assessed as induction of NBD-sphingomyelin production at 1 uM using C12-NBD-ceramide substrate after 72 hrs by TLC relative to control.
A short description of assay [4]: Antimigratory activity against human L3.6p1 cells at 1 uM after 24 hrs in presence of amine oxidase inhibitor aminoguanidine by scratch assay relative to control. In kind it is functional. The following applies: L3.6p1, 24 h.
Another assay relates to CHO-MG. As to the kind of experiment: Cytotoxicity against CHO-MG cells assessed as reduction in cell viability after 48 hrs in presence of aminoguanidine by MTS assay. In kind it is cell-based. The following applies: Cricetulus griseus.
The nature of assay [5]: Substrate activity at PTS in CHO cells assessed as reduction in cell viability after 48 hrs in presence of aminoguanidine by MTS assay. In kind it is cell-based. As to conditions: Cricetulus griseus.
Assay [6] can be described thus: Antiproliferative activity against human L3.6p1 cells after 48 hrs in presence of amine oxidase inhibitor aminoguanidine by MTS assay. As to conditions: for IC50: Homo sapiens, L3.6p1, 48 h. The assay is classed as functional, cell-based.
Assay [7] can be described thus: Antimigratory activity against human L3.6p1 cells at 0.5 uM after 24 hrs in presence of amine oxidase inhibitor aminoguanidine by scratch assay relative to control. In kind it is functional. As to conditions: L3.6p1, 24 h.
Assay [8] is described as follows: Modulation of sphingomyelin pool in human L3.6p1 cells assessed as N17:0 level per mg protein at 500 nM after 48 hrs (reference value: 0.05 +/- 0.01 nmol). In kind it is functional.
Assay [9] is described as follows: Modulation of sphingomyelin pool in human L3.6p1 cells assessed as N25:0 level per mg protein at 500 nM after 48 hrs (reference value: 0.01 nmol). The assay is classed as functional.
Assay [10] is described as follows: Modulation of sphingomyelin pool in human L3.6p1 cells assessed as N20:0 level per mg protein at 500 nM after 48 hrs (reference value: 0.06 +/- 0.01 nmol). In kind it is functional.
A short description of assay [11]: Modulation of sphingomyelin pool in human L3.6p1 cells assessed as N18:1 level per mg protein at 500 nM after 48 hrs (reference value: 0.07 nmol). The assay is classed as functional.
A short description of assay [12]: Modulation of sphingomyelin pool in human L3.6p1 cells assessed as N23:2 level per mg protein at 500 nM after 48 hrs (reference value: 0.01 nmol). The assay is classed as functional.
Assay [13] can be described thus: Modulation of ceramide pool in human L3.6p1 cells assessed as N24:0 level per mg protein at 500 nM after 48 hrs (reference value: 0.16 +/- 0.04 nmol). In kind it is functional.
A short description of assay [14]: Modulation of sphingomyelin pool in human L3.6p1 cells assessed as N22:0 level per mg protein at 500 nM after 48 hrs (reference value: 0.23 +/- 0.01 nmol). In kind it is functional.
The nature of assay [15]: Modulation of sphingomyelin pool in human L3.6p1 cells assessed as N16:1 level per mg protein at 500 nM after 48 hrs (reference value: 0.28 +/- 0.01 nmol). In kind it is functional.
Assay [16] is described as follows: Modulation of sphingomyelin pool in human L3.6p1 cells assessed as N20:1 level per mg protein at 500 nM after 48 hrs (reference value: 0.02 nmol). The assay is classed as functional.
A short description of assay [17]: Modulation of sphingomyelin pool in human L3.6p1 cells assessed as N24:1 level per mg protein at 500 nM after 48 hrs (reference value: 1.07 +/- 0.03 nmol). The assay is classed as functional.
The nature of assay [18]: Modulation of sphingomyelin pool in human L3.6p1 cells assessed as N19:0 level per mg protein at 500 nM after 48 hrs (reference value: 0.01 nmol). The assay is classed as functional.
Assay [19] can be described thus: Modulation of sphingomyelin pool in human L3.6p1 cells assessed as N22:2 level per mg protein at 500 nM after 48 hrs (reference value: 0.01 nmol). In kind it is functional.
A short description of assay [20]: Modulation of sphingomyelin pool in human L3.6p1 cells assessed as N25:1 level per mg protein at 500 nM after 48 hrs (reference value: 0.02 +/- 0.01 nmol). In kind it is functional.
The nature of assay [21]: Modulation of sphingomyelin pool in human L3.6p1 cells assessed as N23:1 level per mg protein at 500 nM after 48 hrs (reference value: 0.10 nmol). In kind it is functional.
Assay [22] can be described thus: Modulation of sphingomyelin pool in human L3.6p1 cells assessed as N18:0 level per mg protein at 500 nM after 48 hrs (reference value: 0.19 +/- 0.01 nmol). The assay is classed as functional.
Assay [23] can be described thus: Modulation of ceramide pool in human L3.6p1 cells assessed as N16:0 level per mg protein at 500 nM after 48 hrs (reference value: 0.08 +/- 0.01 nmol). The assay is classed as functional.
A short description of assay [24]: Modulation of sphingomyelin pool in human L3.6p1 cells assessed as N24:0 level per mg protein at 500 nM after 48 hrs (reference value: 0.32 +/- 0.01 nmol). The assay is classed as functional.
Assay [25] can be described thus: Modulation of sphingomyelin pool in human L3.6p1 cells assessed as N21:0 level per mg protein at 500 nM after 48 hrs (reference value: 0.03 nmol). The assay is classed as functional.
Assay [26] is described as follows: Modulation of sphingomyelin pool in human L3.6p1 cells assessed as N24:2 level per mg protein at 500 nM after 48 hrs (reference value: 0.30 +/- 0.01 nmol). The assay is classed as functional.
Assay [27] in a line: Modulation of sphingomyelin pool in human L3.6p1 cells assessed as total sphingomyelin level per mg protein at 500 nM after 48 hrs (reference value: 5.91 +/- 0.11 nmol). In kind it is functional.
The nature of assay [28]: Modulation of sphingomyelin pool in human L3.6p1 cells assessed as N15:0 level per mg protein at 500 nM after 48 hrs (reference value: 0.12 nmol). In kind it is functional.
Assay [29] is described as follows: Modulation of sphingomyelin pool in human L3.6p1 cells assessed as N22:1 level per mg protein at 500 nM after 48 hrs (reference value: 0.17 +/- 0.01 nmol). In kind it is functional.
The nature of assay [30]: Modulation of sphingomyelin pool in human L3.6p1 cells assessed as N16:0 level per mg protein at 500 nM after 48 hrs (reference value: 2.60 +/- 0.06 nmol). In kind it is functional.
A short description of assay [31]: Modulation of ceramide pool in human L3.6p1 cells assessed as total ceramide level per mg protein at 500 nM after 48 hrs (reference value: 0.62 +/- 0.10 nmol). The assay is classed as functional.
Assay [32] can be described thus: Modulation of ceramide pool in human L3.6p1 cells assessed as N24:1 level per mg protein at 500 nM after 48 hrs (reference value: 0.37 +/- 0.06 nmol). In kind it is functional.
Assay [33] is described as follows: Modulation of sphingomyelin pool in human L3.6p1 cells assessed as N23:0 level per mg protein at 500 nM after 48 hrs (reference value: 0.07 nmol). The assay is classed as functional.
Assay [34] is described as follows: Modulation of sphingomyelin pool in human L3.6p1 cells assessed as N14:0 level per mg protein at 500 nM after 48 hrs (reference value: 0.13 +/- 0.01 nmol). In kind it is functional.
Assay [35] can be described thus: Modulation of sphingomyelin pool in human L3.6p1 cells assessed as N26:1 level per mg protein at 500 nM after 48 hrs (reference value: 0.02 nmol). In kind it is functional.

Turning to `Cl.Cl.Cl.NCCCNCCCNC1CCCCCCCCCCCCCC1`, the “Ratio IC50” value in assay [1] is listed as 2.1. For the same compound, the Activity is 75% in the assay listed under Mus musculus [2] and 82% in the assay filed under Mus musculus [3].

Take `Cl.Cl.Cl.NCCCCNCCCCNCc1c2ccccc2cc2ccccc12`: the “Ratio IC50” value in assay [1] is recorded as 148.

In the case of `Cl.Cl.Cl.NCCNCCNCC1CCCCCCCCCCCCCC1`, the inhibition at 1 µM in assay [4] stood at 26.8%. For the same compound, the half-maximal inhibitory concentration (IC50) in the assay with CHO-MG amounted to 2550 nM; in [5] it was 2480 nM; in [6], 1250 nM. Besides, the “Ratio IC50” value in assay [1] is on record as 1. In addition, the IC5 in [6] worked out at 0.6 µM. Further, the inhibition at 0.5 µM in assay [7] came to 10.2%.

Consider `Cl.Cl.Cl.Cl.NCCNCCNCCNCC1CCCCCCCCCCCCCC1`, for which the Activity in assay [8] came to 0.05 nmol; in assay [9], 0.02 nmol; in assay [10], 0.08 nmol; in [11], 0.09 nmol; in assay [12], 0.01 nmol; in assay [13] it was 0.11 nmol. For the same compound, the Activity is 0.28 nmol in assay [14]; 0.28 nmol in assay [15]; 0.02 nmol in [16]; 1.15 nmol in assay [17]; 0.01 nmol in [18]; 0.02 nmol in assay [19]. The Activity in assay [20] is 0.02 nmol; in assay [21], 0.11 nmol; in [22], 0.24 nmol; in [23], 0.09 nmol; in [24], 0.32 nmol; in [25], 0.03 nmol. For the same compound, the Activity in assay [26] turned out to be 0.31 nmol; in assay [27], 6.25 nmol; in assay [28] it was 0.12 nmol; in assay [29], 0.19 nmol; in assay [30], 2.66 nmol; in [31] it was 0.49 nmol. The Activity in assay [32] is reported as 0.28 nmol; in [33], 0.08 nmol; in assay [34], 0.13 nmol; in assay [35] it was 0.03 nmol. The inhibition at 1 µM in assay [4] amounted to 16.8%. The IC50 in the assay with CHO-MG was 2620 nM; in [5], 2370 nM; in [6] it was 1640 nM. In addition, in assay [1], the “Ratio IC50” value worked out at 1.1. Further, the IC5 in [6] stood at 0.92 µM. Also, the inhibition at 0.5 µM in assay [7] stood at 6.1%.

As to `Cl.Cl.Cl.NCCCNCCCNCCC1CCCCCCCCCCCCCC1`, in [4], the inhibition at 1 µM was determined as 1.5%. In addition, the IC50 in the assay with CHO-MG amounted to 2800 nM; in assay [5] it was 2510 nM; in [6], 3340 nM. Also, the “Ratio IC50” value in assay [1] turned out to be 1.1. Further, the IC5 in assay [6] is 1.64 µM. Moreover, in assay [7], the inhibition at 0.5 µM is -15.5%.

`NCCNCCNCCN` [TRIENTINE]: the inhibition at 1 µM in assay [4] is 0%.

On to `Cl.Cl.NCCNCc1c2ccccc2cc2ccccc12`, for which the IC50 worked out at 11300 nM in the assay on CHO-MG, 1960 nM in assay [5] and 24100 nM in [6]. In addition, in [1], the “Ratio IC50” value is reported as 5.8. Further, the IC5 in assay [6] stood at 4.15 µM. In assay [7], the inhibition at 0.5 µM was found to be 6.2%.

Consider `Cl.Cl.NCCNCC1CCCCCCCCCCCCCC1`, for which the inhibition at 1 µM in assay [4] was 26.2%. Also, the half-maximal inhibitory concentration (IC50) in the assay on CHO-MG amounted to 2370 nM; in assay [5], 2660 nM; in [6], 1440 nM. In addition, the “Ratio IC50” value in assay [1] was determined as 0.9. The IC5 in [6] amounted to 0.6 µM. In addition, the inhibition at 0.5 µM in [7] amounted to 6.2%.

For the compound `NCCNCCN`, the inhibition at 1 µM in assay [4] came to 0%.

For `Cl.Cl.Cl.NCCCNCCCNCC1CCCCCCCCCCCCCC1`, the Activity in assay [8] amounted to 0.06 nmol; in assay [9] it was 0.02 nmol; in assay [10], 0.09 nmol; in assay [11], 0.1 nmol; in assay [12] it was 0.01 nmol; in assay [13], 0.14 nmol. In addition, the Activity stood at 0.31 nmol in assay [14]; 0.3 nmol in assay [15]; 0.03 nmol in [16]; 1.22 nmol in [17]; 0.01 nmol in assay [18]; 0.02 nmol in assay [19]. Moreover, the Activity stood at 0.03 nmol in assay [20]; 0.12 nmol in assay [21]; 0.27 nmol in assay [22]; 88% in the assay filed under Mus musculus [2]; 0.11 nmol in assay [23]; 0.36 nmol in assay [24]. Moreover, the Activity stood at 0.04 nmol in assay [25]; 0.36 nmol in assay [26]; 6.79 nmol in [27]; 0.13 nmol in [28]; 0.22 nmol in assay [29]; 2.84 nmol in [30]. In addition, the Activity in [31] is 0.63 nmol; in assay [32] it was 0.37 nmol; in the assay filed under Mus musculus [3] it was 97%; in [33] it was 0.09 nmol; in assay [34] it was 0.13 nmol; in assay [35], 0.03 nmol. The inhibition at 1 µM in assay [4] came to 29.9%. Further, the “Ratio IC50” value in assay [1] amounted to 1. Also, the IC5 in assay [6] was 80 µM. Moreover, in [6], the concentration for half-maximal inhibition (IC50) was determined as 89400 nM. Moreover, the inhibition at 0.5 µM in assay [7] turned out to be 20.2%.

Source of the values: ChEMBL document CHEMBL4028869, “Synthesis and Bioevaluation of Macrocycle-Polyamine Conjugates as Cell Migration Inhibitors” (J Med Chem, 2017).
